Laboratory results reported in the OligoGym collection.
These antisense oligonucleotides have a phosphorothioate backbone; sugars and methylation of C are not fully specified.

Target: MAP3K5
Conditions: ASO
Note: test concentration or dose not given here.

Question: Which remaining target (mRNA or protein) (fraction of control) does the source give for CCTCCGTGCTCATCTCTCCG here?
Answer: 0.09

Question: For CGCCTCCGTGCTCATCTCTC, which remaining target (mRNA or protein) (fraction of control) is on record?
Answer: 0.1

Question: For CGCTGCCCGGCGGCGGCTCG, which remaining target (mRNA or protein) (fraction of control) is on record?
Answer: 0.78

Question: CGTCCGCCTCCGTGCTCATC was tested. Which remaining target (mRNA or protein) (fraction of control) did it give?
Answer: 0.12

Question: For CGTGCTCATCTCTCCGGGCC, which remaining target (mRNA or protein) (fraction of control) is on record?
Answer: 0.12

Question: How did the remaining target (mRNA or protein) (fraction of control) turn out when CTCATCTCTCCGGGCCGGGC was run?
Answer: 0.3

Question: How did the remaining target (mRNA or protein) (fraction of control) turn out when CTCCCAGTTCATAAAATGGG was run?
Answer: 0.85

Question: With CTCTGTCACCATTTTCATCA as the sequence, how does the remaining target (mRNA or protein) (fraction of control) read?
Answer: 0.41

Question: How did the remaining target (mRNA or protein) (fraction of control) turn out when CTTGAGGTACCATGCTGGTG was run?
Answer: 0.36

Question: Which remaining target (mRNA or protein) (fraction of control) does the source give for GAACTATCTGATTGTCATGG here?
Answer: 0.83

Question: For GAAGCCGGGTGAGCGGGAAG, which remaining target (mRNA or protein) (fraction of control) is on record?
Answer: 0.34

Question: Which remaining target (mRNA or protein) (fraction of control) does the source give for GCACGATCACATGAATGTTA here?
Answer: 0.58

Question: GCCGGCTGACAAGTCGGCTC was tested. Which remaining target (mRNA or protein) (fraction of control) did it give?
Answer: 0.43

Question: How did the remaining target (mRNA or protein) (fraction of control) turn out when GGATGGTGCAGAAGCCCGAG was run?
Answer: 0.5

Question: For GGCCTCGCTCTCGGCCACCA, which remaining target (mRNA or protein) (fraction of control) is on record?
Answer: 0.03

Question: For TCCGCCTCCGTGCTCATCTC, which remaining target (mRNA or protein) (fraction of control) is on record?
Answer: 0.12

Question: Which remaining target (mRNA or protein) (fraction of control) does the source give for TCCGTGCTCATCTCTCCGGG here?
Answer: 0.17

Question: With TCTAATGTTCAGGATTATTT as the sequence, how does the remaining target (mRNA or protein) (fraction of control) read?
Answer: ≥ 1

Question: With TCTCTCCGGGCCGGGCAGCA as the sequence, how does the remaining target (mRNA or protein) (fraction of control) read?
Answer: ≥ 1

Question: With TCTGCTTTCAGTGTCCGTGA as the sequence, how does the remaining target (mRNA or protein) (fraction of control) read?
Answer: 0.21

Question: Which remaining target (mRNA or protein) (fraction of control) does the source give for TGAGCAACAGTCAAGTCTGT here?
Answer: 0.56

Question: Which remaining target (mRNA or protein) (fraction of control) does the source give for TGCTCATCTCTCCGGGCCGG here?
Answer: 0.4

Question: With TGTCAACCCCTTCATGAAGC as the sequence, how does the remaining target (mRNA or protein) (fraction of control) read?
Answer: 0.19

Question: TTCGTCCGCCTCCGTGCTCA was tested. Which remaining target (mRNA or protein) (fraction of control) did it give?
Answer: 0.18

Question: TTCTAAAGTCTCTACCAGCT was tested. Which remaining target (mRNA or protein) (fraction of control) did it give?
Answer: 0.24

Target: PTPN6
Conditions: ASO

Question: For AACCACCCACGGGACAGCAT, which remaining target (mRNA or protein) (fraction of control) is on record?
Answer: 0.47

Question: How did the remaining target (mRNA or protein) (fraction of control) turn out when ACCCACGGGACAGCATCTCT was run?
Answer: ≥ 1

Question: With ACGGGACAGCATCTCTCTGT as the sequence, how does the remaining target (mRNA or protein) (fraction of control) read?
Answer: 0.65

Question: How did the remaining target (mRNA or protein) (fraction of control) turn out when AGCAGGGTCTCTGCATCCAG was run?
Answer: ≥ 1

Target: XIAP
Conditions: ASO

Question: With AAAAGTCATCTTCTCTTGAA as the sequence, how does the remaining target (mRNA or protein) (fraction of control) read?
Answer: 0.58

Question: Which remaining target (mRNA or protein) (fraction of control) does the source give for AAACTGTTAAAAGTCATCTT here?
Answer: 0.81

Question: AAGTCATCTTCTCTTGAAAA was tested. Which remaining target (mRNA or protein) (fraction of control) did it give?
Answer: 0.6

Question: With AATCTGCAATTTGGGGATAC as the sequence, how does the remaining target (mRNA or protein) (fraction of control) read?
Answer: 0.93

Question: How did the remaining target (mRNA or protein) (fraction of control) turn out when ACAATACATGGCAGGGTTCC was run?
Answer: 0.41

Question: With ACTGTTAAAAGTCATCTTCT as the sequence, how does the remaining target (mRNA or protein) (fraction of control) read?
Answer: 0.87

Question: With AGAAAATGGACAGAATCCTA as the sequence, how does the remaining target (mRNA or protein) (fraction of control) read?
Answer: 0.74

Question: How did the remaining target (mRNA or protein) (fraction of control) turn out when AGCATGTTGTTCCCAAGGGT was run?
Answer: 0.54

Question: ATTCGTATAGCTTCTTGTAC was tested. Which remaining target (mRNA or protein) (fraction of control) did it give?
Answer: 0.61

Question: Which remaining target (mRNA or protein) (fraction of control) does the source give for ATTTATAGTTGCTCCCAGAT here?
Answer: 0.58

Question: ATTTGTTAAGCCTATCTGAA was tested. Which remaining target (mRNA or protein) (fraction of control) did it give?
Answer: 0.66

Question: For CAAAACTGTTAAAAGTCATC, which remaining target (mRNA or protein) (fraction of control) is on record?
Answer: ≥ 1

Question: With CAACTAAAACACTGCCATGT as the sequence, how does the remaining target (mRNA or protein) (fraction of control) read?
Answer: 0.54

Question: How did the remaining target (mRNA or protein) (fraction of control) turn out when CACTCCTCAAGTGAATGAGT was run?
Answer: 0.52

Question: Which remaining target (mRNA or protein) (fraction of control) does the source give for CATCTTCTCTTGAAAATAGG here?
Answer: 0.9

Question: With CCAGGCACGATCACAAGGTT as the sequence, how does the remaining target (mRNA or protein) (fraction of control) read?
Answer: ≥ 1

Question: Which remaining target (mRNA or protein) (fraction of control) does the source give for CTATCATTAAATACGCTTTC here?
Answer: 0.99

Question: With GAAATTCCTATCAGAACTCA as the sequence, how does the remaining target (mRNA or protein) (fraction of control) read?
Answer: 0.76

Question: Which remaining target (mRNA or protein) (fraction of control) does the source give for GATGTCTGCAGGTACACAAG here?
Answer: 0.56

Question: How did the remaining target (mRNA or protein) (fraction of control) turn out when GCATGACAACTAAAGCACCG was run?
Answer: 0.56

Question: For GGTTAGGTTACTGATGTTAG, which remaining target (mRNA or protein) (fraction of control) is on record?
Answer: ≥ 1

Question: Which remaining target (mRNA or protein) (fraction of control) does the source give for GTCATCTTCTCTTGAAAATA here?
Answer: 0.72

Question: Which remaining target (mRNA or protein) (fraction of control) does the source give for TAATGGAATTCAATCCTGAT here?
Answer: 0.83

Question: Which remaining target (mRNA or protein) (fraction of control) does the source give for TAGAGTCCAGCACTTGCTAA here?
Answer: 0.4

Question: For TAGCAAAAGTTTTTAATCTA, which remaining target (mRNA or protein) (fraction of control) is on record?
Answer: 0.99

Question: For TAGGACTTGTCCACCTTTTC, which remaining target (mRNA or protein) (fraction of control) is on record?
Answer: 0.58

Question: How did the remaining target (mRNA or protein) (fraction of control) turn out when TATGATGCTTCTTATTCTTA was run?
Answer: 0.65

Question: How did the remaining target (mRNA or protein) (fraction of control) turn out when TATTAACAACATACATACTT was run?
Answer: ≥ 1

Question: With TCCACCAGCATGGAACAATT as the sequence, how does the remaining target (mRNA or protein) (fraction of control) read?
Answer: 0.71

Question: For TCCTTGTTAACTGAGTATAT, which remaining target (mRNA or protein) (fraction of control) is on record?
Answer: 0.69

Question: For TCTGCATGTGTCTCAGATGG, which remaining target (mRNA or protein) (fraction of control) is on record?
Answer: 0.42

Question: With TCTTCTCTTGAAAATAGGAC as the sequence, how does the remaining target (mRNA or protein) (fraction of control) read?
Answer: 0.96

Question: With TGACTAGATGTCCACAAGGA as the sequence, how does the remaining target (mRNA or protein) (fraction of control) read?
Answer: 0.61

Question: TGCCTACTATAGAGTTAGAT was tested. Which remaining target (mRNA or protein) (fraction of control) did it give?
Answer: 0.6

Question: For TGCTCTTCAGTACTAATCTC, which remaining target (mRNA or protein) (fraction of control) is on record?
Answer: 0.58

Question: TGTTAAAAGTCATCTTCTCT was tested. Which remaining target (mRNA or protein) (fraction of control) did it give?
Answer: 0.84

Question: Which remaining target (mRNA or protein) (fraction of control) does the source give for TTAAAAGTCATCTTCTCTTG here?
Answer: ≥ 1

Question: TTCAAAACTGTTAAAAGTCA was tested. Which remaining target (mRNA or protein) (fraction of control) did it give?
Answer: ≥ 1

Question: With TTGAAAATAGGACTTGTCCA as the sequence, how does the remaining target (mRNA or protein) (fraction of control) read?
Answer: 0.93

Question: TTGTACTGACCATTCTGGAT was tested. Which remaining target (mRNA or protein) (fraction of control) did it give?
Answer: 0.47
